Results published in patent US11390616B2 (BRISTOL-MYERS SQUIBB COMPANY, priority 2015, dated 2022).

The compounds below were run against T1, human APJ receptor (Homo sapiens, UniProt P35414) (assay: Intracellular cAMP accumulation assay (APJ hcAMP, HTRF)). Settings: HEK293 cells stably expressing human APJ receptor; inhibition of forskolin-mediated cAMP production; read-out: APJ cAMP Potency range.
T1 construct: expressed in transfected cells; host or cells: HEK293
T1 sequence (P35414 1-380): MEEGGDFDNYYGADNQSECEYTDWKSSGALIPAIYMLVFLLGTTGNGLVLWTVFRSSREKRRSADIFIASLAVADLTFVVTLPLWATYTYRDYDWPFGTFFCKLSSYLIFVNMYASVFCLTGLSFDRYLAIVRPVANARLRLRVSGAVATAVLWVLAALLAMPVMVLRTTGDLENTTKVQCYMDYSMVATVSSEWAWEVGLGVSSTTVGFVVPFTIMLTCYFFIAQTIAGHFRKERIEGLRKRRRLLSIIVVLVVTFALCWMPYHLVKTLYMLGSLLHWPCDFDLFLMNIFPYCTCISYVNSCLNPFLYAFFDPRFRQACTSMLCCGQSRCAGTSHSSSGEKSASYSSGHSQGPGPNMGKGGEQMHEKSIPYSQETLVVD
Format: cell-based
Procedure: Intracellular cAMP Accumulation Assay
HEK293 cells stably expressing human APJ receptor were used to assess the activity of compounds. Cultured cells were detached and resuspended in the cAMP Homogeneous Time-Resolved Fluorescence (HTRF) assay buffer (Cisbio cat; #62AM4PEJ). The assay was performed in 384-well assay plates (Perkin-Elmer; cat #6008289) according to assay protocol provided by the manufacturer. Serial dilutions of a compound together with assay buffer containing […] IBMX and 2 μM forskolin were added to each well containing 5,000 cells and incubated for 30 minutes at room temperature. Subsequently, cAMP D2 reagent was added in the lysis buffer followed by the EuK antibody (Cisbio; cat #62AM4PEJ) and incubated for 60 min. The fluorescence emission ratio was measured using fluorometer. The intracellular cAMP concentrations (compound-stimulated inhibition of forskolin-mediated cAMP production) were calculated by extrapolation from a standard curve using known cAMP concentrations. The EC50 values were obtained by fitting the data to a sigmoidal concentration-response curve with variable slope. The maximal achievable inhibition of forskolin-induced cAMP levels (Ymax) for each compound was expressed as relative percentage of inhibition attained using pyroglutamated apelin-13 ((Pyr1)apelin-13) peptide, which was set to 100%.
The examples disclosed below were tested in the APJ in vitro assays described above and were found having human APJ cyclic AMP (hcAMP) activity. The EC50 value of each compound is presented at the end of the example description.
The biological activity of the exemplified compounds of this invention determined by the assay described above is shown at the end of each example.

`COc1cccc(OC)c1-n1c(CCC(C)C)nc(O)c(Cc2ccc(-c3ncon3)cc2)c1=O` [Example 17, 3-(2,6-dimethoxyphenyl)-6-hydroxy-2-(3-methylbutyl)-5-{[4-(1,2,4-oxadiazol-3-yl)phenyl]methyl}-3,4-dihydropyrimidin-4-one] and `COc1cccc(OC)c1-n1c(CCC(C)C)nc(O)c(Cc2coc(-c3ccc(Cl)cc3)n2)c1=O` [Example 18, 5-{[2-(4-chlorophenyl)-1,3-oxazol-4-yl]methyl}-3-(2,6-dimethoxyphenyl)-6-hydroxy-2-(3-methylbutyl)-3,4-dihydropyrimidin-4-one] fall in the same range of EC50: 10 to 100 nM for the first, 10 to 100 nM for the second.

`COc1cccc(OC)c1-n1c(CCC(C)C)nc(O)c(Cc2ccc(-n3ccccc3=O)cc2)c1=O` [Example 34, 3-(2,6-dimethoxyphenyl)-6-hydroxy-2-(3-methylbutyl)-5-{[4-(2-oxo-1,2-dihydropyridin-1-yl)phenyl]methyl}-3,4-dihydropyrimidin-4-one] and `COc1cccc(OC)c1-n1c(CCC(C)C)nc(O)c(Cc2ccc(-n3cc(Cl)ccc3=O)cc2)c1=O` [Example 53, 5-{[4-(5-chloro-2-oxo-1,2-dihydropyridin-1-yl)phenyl]methyl}-3-(2,6-dimethoxyphenyl)-6-hydroxy-2-(3-methylbutyl)-3,4-dihydropyrimidin-4-one] fall in the same range of EC50: 0.01 to 10 nM for the first, 0.01 to 10 nM for the second.

`CCCCc1nc(=O)c(Cc2ccc(-c3cccnc3C)cc2)c(O)n1[C@@H](CC)c1cccc(F)c1` [Example 105, 2-butyl-1-[(1S)-1-(3-fluorophenyl)propyl]-6-hydroxy-5-{[4-(2-methylpyridin-3-yl)phenyl]methyl}-1,4-dihydropyrimidin-4-one] and `CCCCc1nc(=O)c(Cc2ccc(C3CC3)cc2)c(O)n1[C@@H](CC)c1cccc(C#N)c1` [Example 101, 3-[(1S)-1-{2-butyl-5-[(4-cyclopropylphenyl)methyl]-6-hydroxy-4-oxo-1,4-dihydropyrimidin-1-yl}propyl]benzonitrile] fall in the same range of EC50: 0.01 to 10 nM for the first, 0.01 to 10 nM for the second.

`CC[C@@H](c1ccccc1)n1c(-c2nc(C)cs2)nc(=O)c(Cc2ccc(-c3cccn(C)c3=O)c(F)c2)c1O` [Example 119, 5-{[3-fluoro-4-(1-methyl-2-oxo-1,2-dihydropyridin-3-yl)phenyl]methyl}-6-hydroxy-2-(4-methyl-1,3-thiazol-2-yl)-1-[(1S)-1-phenylpropyl]-1,4-dihydropyrimidin-4-one] and `CCc1cccc(CC)c1-n1c(-c2ccn(C3CC3)n2)nc(=O)c(Cc2ccc(-c3cccn(C)c3=O)c(F)c2)c1O` [Example 93, 2-(1-cyclopropyl-1H-pyrazol-3-yl)-1-(2,6-diethylphenyl)-5-{[3-fluoro-4-(1-methyl-2-oxo-1,2-dihydropyridin-3-yl)phenyl]methyl}-6-hydroxy-1,4-dihydropyrimidin-4-one] fall in the same range of EC50: 0.01 to 10 nM for the first, 0.01 to 10 nM for the second.

`CCCCc1nc(=O)c(Cc2ccc(-c3ccc(F)nc3C)cc2)c(O)n1-c1c(CC)cccc1CC` [Example 64, 2-butyl-1-(2,6-diethylphenyl)-5-{[4-(6-fluoro-2-methylpyridin-3-yl)phenyl]methyl}-6-hydroxy-1,4-dihydropyrimidin-4-one] and `CCc1cccc(CC)c1-n1c(-c2ccn(C)n2)nc(=O)c(Cc2ccc(-c3ccncc3C)c(F)c2)c1O` [Example 70, 1-(2,6-diethylphenyl)-5-{[3-fluoro-4-(3-methylpyridin-4-yl)phenyl]methyl}-6-hydroxy-2-(1-methyl-1H-pyrazol-3-yl)-1,4-dihydropyrimidin-4-one] fall in the same range of EC50: 0.01 to 10 nM for the first, 0.01 to 10 nM for the second.

`CC[C@@H](c1cc(F)cc(F)c1)n1c(-c2ccn(CC)n2)nc(=O)c(Cc2ccc(-c3ccnc(F)c3C)cc2)c1O` [Example 132, 1-[(1S)-1-(3,5-difluorophenyl)propyl]-2-(1-ethyl-1H-pyrazol-3-yl)-5-{[4-(2-fluoro-3-methylpyridin-4-yl)phenyl]methyl}-6-hydroxy-1,4-dihydropyrimidin-4-one] and `CC[C@@H](c1cc(F)cc(F)c1)n1c(COC(C)C)nc(=O)c(Cc2ccc(-c3ccnc(F)c3C)cc2)c1O` [Example 108, 1-[(1S)-1-(3,5-difluorophenyl)propyl]-5-{[4-(2-fluoro-3-methylpyridin-4-yl)phenyl]methyl}-6-hydroxy-2-[(propan-2-yloxy)methyl]-1,4-dihydropyrimidin-4-one] fall in the same range of EC50: 0.01 to 10 nM for the first, 0.01 to 10 nM for the second.

`COc1cccc(OC)c1-n1c(CCC2CC2)nc(O)c(Cc2ccc(-n3cc(Cl)ccc3=O)cc2)c1=O` [Example 57, 5-{[4-(5-chloro-2-oxo-1,2-dihydropyridin-1-yl)phenyl]methyl}-2-(2-cyclopropylethyl)-3-(2,6-dimethoxyphenyl)-6-hydroxy-3,4-dihydropyrimidin-4-one] and `COc1cccc(OC)c1-n1c(CCC2CC2)nc(O)c(Cc2ccc(-n3cc(F)ccc3=O)cc2)c1=O` [Example 56, 2-(2-cyclopropylethyl)-3-(2,6-dimethoxyphenyl)-5-{[4-(5-fluoro-2-oxo-1,2-dihydropyridin-1-yl)phenyl]methyl}-6-hydroxy-3,4-dihydropyrimidin-4-one] fall in the same range of EC50: 0.01 to 10 nM for the first, 0.01 to 10 nM for the second.

`CC[C@@H](c1cc(F)cc(F)c1)n1c(CCC2CC2)nc(=O)c(Cc2ccc(-c3ccnc(F)c3C)cc2)c1O` [Example 113, 2-(2-cyclopropylethyl)-1-[(1S)-1-(3,5-difluorophenyl)propyl]-5-{[4-(2-fluoro-3-methylpyridin-4-yl)phenyl]methyl}-6-hydroxy-1,4-dihydropyrimidin-4-one] and `CCc1cccc(CC)c1-n1c(-c2ccn(C(C)C)n2)nc(=O)c(Cc2ccc(-c3ccnc(F)c3C)c(F)c2)c1O` [Example 85, 1-(2,6-diethylphenyl)-5-{[3-fluoro-4-(2-fluoro-3-methylpyridin-4-yl)phenyl]methyl}-6-hydroxy-2-[1-(propan-2-yl)-1H-pyrazol-3-yl]-1,4-dihydropyrimidin-4-one] fall in the same range of EC50: 0.01 to 10 nM for the first, 0.01 to 10 nM for the second.

First: CCCCc1nc(O)c(Cc2coc(-c3ccc(Cl)cc3)n2)c(=O)n1-c1c(OC)cccc1OC [Example 11, 2-butyl-5-{[2-(4-chlorophenyl)-1,3-oxazol-4-yl]methyl}-3-(2,6-dimethoxyphenyl)-6-hydroxy-3,4-dihydropyrimidin-4-one]
Second: CCCCc1nc(O)c(Cc2ccc(-c3ccc(C)nc3)cc2)c(=O)n1-c1c(OC)cccc1OC [Example 44, 2-butyl-3-(2,6-dimethoxyphenyl)-6-hydroxy-5-{[4-(6-methylpyridin-3-yl)phenyl]methyl}-3,4-dihydropyrimidin-4-one]
The EC50 of the first is lower: 0.01 to 10 nM for the first, 10 to 100 nM for the second. The first is the more potent here.

`CCCCc1nc(O)c(Cc2cc(C)on2)c(=O)n1-c1c(OC)cccc1OC` [Example 8, 2-butyl-3-(2,6-dimethoxyphenyl)-6-hydroxy-5-[(5-methyl-1,2-oxazol-3-yl)methyl]-3,4-dihydropyrimidin-4-one] and `CCCCc1nc(O)c(Cc2ccccc2)c(=O)n1-c1c(OC)cccc1OC` [Example 19, 5-benzyl-2-butyl-3-(2,6-dimethoxyphenyl)-6-hydroxy-3,4-dihydropyrimidin-4-one] fall in the same range of EC50: 10 to 100 nM for the first, 10 to 100 nM for the second.

`CCCCc1nc(O)c(Cc2ccc(-n3ccc(Cl)cc3=O)cc2)c(=O)n1-c1c(OC)cccc1OC` [Example 42, 2-butyl-5-{[4-(4-chloro-2-oxo-1,2-dihydropyridin-1-yl)phenyl]methyl}-3-(2,6-dimethoxyphenyl)-6-hydroxy-3,4-dihydropyrimidin-4-one] and `COc1cccc(OC)c1-n1c(CCC(C)C)nc(O)c(Cc2ccc(-n3cc(F)ccc3=O)cc2)c1=O` [Example 52, 3-(2,6-dimethoxyphenyl)-5-{[4-(5-fluoro-2-oxo-1,2-dihydropyridin-1-yl)phenyl]methyl}-6-hydroxy-2-(3-methylbutyl)-3,4-dihydropyrimidin-4-one] fall in the same range of EC50: 0.01 to 10 nM for the first, 0.01 to 10 nM for the second.

`CCCCc1nc(O)c(Cc2ccc(-c3cccnc3OC)cc2)c(=O)n1-c1c(OC)cccc1OC` [Example 48, 2-butyl-3-(2,6-dimethoxyphenyl)-6-hydroxy-5-{[4-(2-methoxypyridin-3-yl)phenyl]methyl}-3,4-dihydropyrimidin-4-one] and `CCCCc1nc(O)c(Cc2ccc(N3CCOCC3)cc2)c(=O)n1-c1c(OC)cccc1OC` [Example 36, 2-butyl-3-(2,6-dimethoxyphenyl)-6-hydroxy-5-{[4-(morpholin-4-yl)phenyl]methyl}-3,4-dihydropyrimidin-4-one] fall in the same range of EC50: 0.01 to 10 nM for the first, 0.01 to 10 nM for the second.

In the case of `COc1cccc(OC)c1-n1c(COC2CC2)nc(O)c(Cc2ccc(-n3ccccc3=O)cc2)c1=O` [Example 40, 2-(cyclopropoxymethyl)-3-(2,6-dimethoxyphenyl)-6-hydroxy-5-{[4-(2-oxo-1,2-dihydropyridin-1-yl)phenyl]methyl}-3,4-dihydropyrimidin-4-one], the EC50 is reported as 0.01 to 10 nM.
